Data as given in US20240050428A1 (Cullgen (Shanghai), Inc., priority 2020, published 2024).
Read-outs that look alike come from different tables or passages of the source.

How the values were obtained:
MV4;11 cells = assay: Cell viability assay (CellTiter-Glo) in MV4;11 cells, alone or with gilteritinib; type: cell-based; conditions: Homo sapiens, MV4;11 cells, three days, CellTiter-Glo, read-out: MV4
MOLM-13 cells = assay: Cell viability assay (CellTiter-Glo) in MOLM-13 cells, alone or with gilteritinib; type: cell-based; conditions: Homo sapiens, MOLM-13 cells, three days, CellTiter-Glo
[1] = MV4-11, 72 h, compound alone (without gilteritinib), 11 IC50
[2] = MV4-11, 72 h, with gilteritinib 10 nM, 11 IC50 gilteritinib
[3] = MOLM-13, 72 h, compound alone (without gilteritinib), read-out: MOLM-13 IC50
[4] = MOLM-13, 72 h, with gilteritinib 20 nM, read-out: MOLM-13 IC50 gilteritinib
[5] = 72 h, compound alone (without gilteritinib), 11 IC50
[6] = 72 h, with gilteritinib 10 nM, 11 IC50 gilteritinib
[7] = 72 h, compound alone (without gilteritinib), read-out: MOLM-13 IC50
[8] = 72 h, with gilteritinib 20 nM, read-out: MOLM-13 IC50 gilteritinib

Compound | IC50 (MV4;11 cells; [1]) [nM] | IC50 (MV4;11 cells; [2]) [nM] | IC50 (MOLM-13 cells; [3]) [nM] | IC50 (MOLM-13 cells; [4]) [nM] | IC50 (MV4;11 cells; [5]) [nM] | IC50 (MV4;11 cells; [6]) [nM] | IC50 (MOLM-13 cells; [7]) [nM] | IC50 (MOLM-13 cells; [8]) [nM]
CC(CCCNc1ccc2c(c1)C(=O)N(C1CCC(=O)NC1=O)C2=O)C(=O)N1CCC(n2cc(-c3cnc4ccccc4n3)cn2)CC1 (stereo not shown) [GS-138, 2-(2,6-Dioxopiperidin-3-yl)-5-((4-methyl-5-oxo-5-(4-(4-(quinoxalin-2-yl)-1H-pyrazol-1-yl)piperidin-1-yl)pentyl)amino)iaoindoline-1,3-dione] | > 1000 | > 1000 | > 1000 | > 1000 |  |  |  | 
CC(C)(CCCNc1ccc2c(c1)C(=O)N(C1CCC(=O)NC1=O)C2=O)C(=O)N1CCC(n2cc(-c3cnc4ccccc4n3)cn2)CC1 (stereo not shown) [GS-139, 5-((4,4-Dimethyl-5-oxo-5-(4-(4-(quinoxalin-2-yl)-1H-pyrazol-1-yl)piperidin-1-yl)pentyl)amino)-2-(2,6-dioxopiperidin-3-yl)isoindoline-1,3-dione] | 100 to 1000 | 100 to 1000 | > 1000 | > 1000 |  |  |  | 
O=C1CCC(N2Cc3cc(NCCCC4CC(n5cc(-c6cnc7ccccc7n6)cn5)C4)ccc3C2=O)C(=O)N1 (stereo not shown) [GS-140, 3-(1-Oxo-5-((3-(3-(4-(quinoxalin-2-yl)-1H-pyrazol-1-yl)cyclobutyl)propyl)amino)isoindolin-2-yl)piperidine-2,6-dione] | 10 to 100 | 100 to 1000 | > 1000 | > 1000 |  |  |  | 
O=C1CCC(N2C(=O)c3ccc(NCCCC4(C(=O)N5CCC(n6cc(-c7cnc8ccccc8n7)cn6)CC5)CC4)cc3C2=O)C(=O)N1 (stereo not shown) [GS-141, 2-(2,6-Dioxopiperidin-3-yl)-5-((3-(1-(4-(4-(quinoxalin-2-yl)-1H-pyrazol-1-yl)piperidine-1-carbonyl)cyclopropyl)propyl)amino)isondoline-1,3-dione] | > 1000 | > 1000 | > 1000 | > 1000 |  |  |  | 
O=C1CCC(N2Cc3c(NC4CCCC(CCCCn5cc(-c6cnc7ccccc7n6)cn5)C4)cccc3C2=O)C(=O)N1 (stereo not shown) [GS-142, 3-(1-Oxo-4-((3-(4-(4-(quinoxalin-2-yl)-1H-pyrazol-1-yl)butyl)cyclohexyl)amino)isoindolin-2-yl)piperidine-2,6-dione] | > 1000 | > 1000 | > 1000 | > 1000 |  |  |  | 
C[C@@H]1CC(n2cc(-c3cnc4ccccc4n3)cn2)C[C@H](C)N1C(=O)CCCCNc1ccc2c(c1)C(=O)N(C1CCC(=O)NC1=O)C2=O (stereo partly drawn) [GS-143, 5-((5-((2R,6S)-2,6-dimethyl-4-(4-(quinoxalin-2-yl)-1H-pyrazol-1-yl)piperidin-1-yl)-5-oxopentyl)amino)-2-(2,6-dioxopiperidin-3-yl)isoindoline-1,3-dione] | > 1000 | > 1000 | > 1000 | > 1000 |  |  |  | 
O=C1CCC(N2C(=O)c3ccc(NCC45CC(C(=O)N6CCC(n7cc(-c8cnc9ccccc9n8)cn7)CC6)(C4)C5)cc3C2=O)C(=O)N1 (stereo not shown) [GS-144, 2-(2,6-Dioxopiperidin-3-yl)-5-(((3-(4-(4-(quinoxalin-2-yl)-1H-pyrazol-1-yl)piperidine-1-carbonyl)bicyclo[1.1.1]pentan-1-yl)methyl)amino)isoindoline-1,3-dione] | 100 to 1000 | 10 to 100 | > 1000 | 100 to 1000 |  |  |  | 
O=C1CCC(N2C(=O)c3ccc(NCCCC(F)(F)C(=O)N4CCC(n5cc(-c6cnc7ccccc7n6)cn5)CC4)cc3C2=O)C(=O)N1 (stereo not shown) [GS-145, 5-((4,4-Difluoro-5-oxo-5-(4-(4-(quinoxalin-2-yl)-1H-pyrazol-1-yl)piperidin-1-yl)pentyl)amino)-2-(2,6-dioxopiperidin-3-yl)isoindoline-1,3-dione] | 100 to 1000 | 10 to 100 | 100 to 1000 | < 10 |  |  |  | 
Cc1nn(CCCCCCNc2ccc3c(c2)C(=O)N(C2CCC(=O)NC2=O)C3=O)c(C)c1-c1cnccn1 (stereo not shown) [GS-146, 5-((6-(3,5-Dimethyl-4-(pyrazin-2-yl)-1H-pyrazol-1-yl)hexyl)amino)-2-(2,6-dioxopiperidin-3-yl)isoindoline-1,3-dione] | > 1000 | 10 to 100 | 100 to 1000 | 10 to 100 |  |  |  | 
O=C1CCC(N2C(=O)c3ccc(NCCCCC(=O)N4CCC(c5ccccc5)CC4)cc3C2=O)C(=O)N1 (stereo not shown) [GS-147, 2-(2,6-Dioxopiperidin-3-yl)-5-((5-oxo-5-(4-phenylpiperidin-1-yl)pentyl)amino)isoindoline-1,3-dione] |  |  |  |  | > 1000 | 100 to 1000 | > 1000 | 10 to 100
O=C1CCC(N2C(=O)c3ccc(NCCCC(=O)N4CCC(c5ccccc5)CC4)cc3C2=O)C(=O)N1 (stereo not shown) [GS-148, 2-(2,6-Dioxopiperidin-3-yl)-5-((4-oxo-4-(4-phenylpiperidin-1-yl)butyl)amino)isoindoline-1,3-dione] |  |  |  |  | > 1000 | 100 to 1000 | 100 to 1000 | 10 to 100
O=C1CCC(N2C(=O)c3ccc(NCCNC(=O)N4CCC(n5cc(-c6cnc7ccccc7n6)cn5)CC4)cc3C2=O)C(=O)N1 (stereo not shown) [GS-149, N-(2-((2-(2,6-dioxopiperidin-3-yl)-1,3-dioxoisoindolin-5-yl)amino)ethyl)-4-(4-(quinoxalin-2-yl)-1H-pyrazol-1-yl)piperidine-1-carboxamide] | > 1000 | 100 to 1000 | > 1000 | 100 to 1000 |  |  |  | 
Cc1nn(CCCCCCNc2ccc3c(c2)C(=O)N(C2CCC(=O)NC2=O)C3=O)c(C)c1-c1ncccn1 (stereo not shown) [GS-150, 5-((6-(3,5-Dimethyl-4-(pyrimidin-2-yl)-1H-pyrazol-1-yl)hexyl)amino)-2-(2,6-dioxopiperidin-3-yl)isoindoline-1,3-dione] | 100 to 1000 | 10 to 100 | 100 to 1000 | < 10 |  |  |  | 
Cc1nn(CCCCCCNc2ccc3c(c2)C(=O)N(C2CCC(=O)NC2=O)C3=O)c(C)c1-c1ncc2ccccc2n1 (stereo not shown) [GS-151, 5-((6-(3,5-Dimethyl-4-(quinazolin-2-yl)-1H-pyrazol-1-yl)hexyl)amino)-2-(2,6-dioxopiperidin-3-yl)isoindoline-1,3-dione] | 10 to 100 | < 10 | 10 to 100 | < 10 |  |  |  | 
O=C1CCC(N2C(=O)c3ccc(NCCc4cccc(N5CCC(n6cc(-c7cnc8ccccc8n7)cn6)CC5)c4)cc3C2=O)C(=O)N1 (stereo not shown) [GS-152, 2-(2,6-Dioxopiperidin-3-yl)-5-((3-(4-(4-(quinoxalin-2-yl)-1H-pyrazol-1-yl)piperidin-1-yl)phenethyl)amino)isoindoline-1,3-dione] | 100 to 1000 | 10 to 100 | 100 to 1000 | 10 to 100 |  |  |  | 
O=C1CCC(N2C(=O)c3ccc(NCCCCC(=O)N4CCC(n5cc(-c6cnc7ccccc7n6)cn5)CC45CC5)cc3C2=O)C(=O)N1 (stereo not shown) [GS-153, 2-(2,6-Dioxopiperidin-3-yl)-5-((5-oxo-5-(7-(4-(quinoxalin-2-yl)-1H-pyrazol-1-yl)-4-azaspiro[2.5]octan-4-yl)pentyl)amino)isoindoline-1,3-dione] | 100 to 1000 | 100 to 1000 | > 1000 | 10 to 100 |  |  |  | 
O=C1CCC(N2Cc3c(NC4CCCC(CCCC(=O)N5CCC(n6cc(-c7cnc8ccccc8n7)cn6)CC5)C4)cccc3C2=O)C(=O)N1 (stereo not shown) [GS-154, 3-(1-Oxo-4-((3-(4-oxo-4-(4-(4-(quinoxalin-2-yl)-1H-pyrazol-1-yl)piperidin-1-yl)butyl)cyclohexyl)amino)isoindolin-2-yl)piperidine-2,6-dione] | > 1000 | > 1000 | > 1000 | > 1000 |  |  |  | 
O=C1CCC(N2C(=O)c3ccc(NCC4CCC(Cn5cc(-c6cnc7ccccc7n6)cn5)CC4)cc3C2=O)C(=O)N1 (stereo not shown) [GS-155, 2-(2,6-Dioxopiperidin-3-yl)-5-(((4-((4-(quinoxalin-2-yl)-1H-pyrazol-1-yl)methyl)cyclohexyl)methyl)amino)isoindoline-1,3-dione] | 100 to 1000 | > 1000 | > 1000 | 100 to 1000 |  |  |  | 
Cc1nn(C2CC(CCCNc3ccc4c(c3)C(=O)N(C3CCC(=O)NC3=O)C4=O)C2)c(C)c1-c1cnc2cccc(F)c2n1 (stereo not shown) [GS-156, 2-(2,6-Dioxopiperidin-3-yl)-5-((3-(3-(4-(8-fluoroquinoxalin-2-yl)-3,5-dimethyl-1H-pyrazol-1-yl)cyclobutyl)propyl)amino)isoindoline-1,3-dione] | > 1000 | 100 to 1000 | > 1000 | < 10 |  |  |  | 
O=C1CCC(N2Cc3c(NC4CCCC(CCCn5cc(-c6cnc7ccccc7n6)cn5)C4)cccc3C2=O)C(=O)N1 (stereo not shown) [GS-157] | > 1000 | > 1000 | > 1000 | > 1000 |  |  |  | 
O=C1CCC(N2Cc3ccc(CCCC(=O)N4CCC(n5cc(-c6cnc7ccccc7n6)cn5)CC4)cc3C2=O)C(=O)N1 (stereo not shown) [GS-158, 3-(1-Oxo-6-(4-oxo-4-(4-(4-(quinoxalin-2-yl)-1H-pyrazol-1-yl)piperidin-1-yl)butyl)isoindolin-2-yl)piperidine-2,6-dione] | > 1000 | > 1000 | > 1000 | > 1000 |  |  |  | 
O=C1CCC(N2Cc3ccc(CCCC(=O)N4CCC(n5cc(-c6ccc7ccccc7n6)cn5)CC4)cc3C2=O)C(=O)N1 (stereo not shown) [GS-159, 3-(1-Oxo-6-(4-oxo-4-(4-(4-(quinolin-2-yl)-1H-pyrazol-1-yl)piperidin-1-yl)butyl)isoindolin-2-yl)piperidine-2,6-dione] | > 1000 | > 1000 | > 1000 | > 1000 |  |  |  | 
